Target: T1, endothelial lipase (EL) (Homo sapiens, UniProt Q9Y5X9)
T1 construct: HT-1080 cells, which were transformed by RAGE technology (Athersys) to overexpress endogenous EL; endogenous in cells; conditioned medium used as the enzyme source
T1 sequence (Q9Y5X9 21-500): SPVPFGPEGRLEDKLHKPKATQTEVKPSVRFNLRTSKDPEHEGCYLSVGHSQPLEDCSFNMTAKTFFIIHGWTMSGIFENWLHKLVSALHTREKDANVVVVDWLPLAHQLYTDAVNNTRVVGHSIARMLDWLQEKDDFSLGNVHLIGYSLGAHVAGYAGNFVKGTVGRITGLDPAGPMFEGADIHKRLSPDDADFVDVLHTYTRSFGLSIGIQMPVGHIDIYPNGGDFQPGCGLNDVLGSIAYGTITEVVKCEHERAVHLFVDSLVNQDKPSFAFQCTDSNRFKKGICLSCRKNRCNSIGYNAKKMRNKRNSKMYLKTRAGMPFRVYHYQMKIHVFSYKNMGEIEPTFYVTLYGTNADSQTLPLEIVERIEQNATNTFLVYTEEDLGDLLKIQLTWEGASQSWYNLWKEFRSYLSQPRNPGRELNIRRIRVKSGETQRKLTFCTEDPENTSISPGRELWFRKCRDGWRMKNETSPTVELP
Experiment: Endothelial lipase (EL) enzymatic assay with fluorescent substrate A10070 in DMPG vesicles
Type: biochemical
Details: conditioned media from HT-1080 cells overexpressing endogenous EL; 20 min preincubation at 37° C.; read-out: HLE_EL_CRC IC50
Method: Endothelial lipase activity was measured using a fluorescent substrate, A10070, (Invitrogen, CA) doped into an artificial vesicle containing DMPG (Avanti Polar Lipids) as the excipient. Vesicles were prepared by combining 285 uL of 1 mM DMPG in a 1:1 mixture of MeOH and CHCl3 with 15 uL of 1 mM A10070 in a 1:1 mixture of MeOH and CHCl3. The mixture was dried under nitrogen and resuspended in 150 uL of 50 mM HEPES pH 8.0 buffer containing 100 mM NaCl and 0.2 mM EDTA. The sample was allowed to sit at rt for 15 min and then was sonicated 3×4 mins on ice with a Branson Sonicator using duty cycle 1. This preparation provides vesicles with a mole fraction of 0.05 for the FRET substrate.
The enzymatic assay was measured using white, opaque 96-well half area plates. Each well contained 60 uL of assay buffer (50 mM HEPES pH 8.0, 50 mM NaCl and 1 mM CaCl2) and 2 ul of a DMSO solution containing compound of interest. Conditioned media obtained from HT-1080 cells, which were transformed by RAGE technology (Athersys) to overexpress endogenous EL, was added and the reaction was allowed to incubate for 20 min at 37° C. with gentle agitation. The reaction was started by the addition of 20 uL of a 1:4 dilution of vesicles. The final total reaction volume was 100 uL. The reaction rates were measured on a Gemini plate reader with an excitation wavelength of 488 nm and a emission of 530 nm. Readings were taken every 20 seconds for 10 min with agitation between each reading. The slope of the linear portion of the readout was used to calculate the rate of the reaction.

| IC50 [µM] | Compound |
| --- | --- |
| 0.00573 | O=C(NCCCc1ccc(Cl)c(Cl)c1)C1=C(O)C(=O)N(CC2CCCCC2)C1 [Example 48, 1-(cyclohexylmethyl)-N-(3-(3,4-dichlorophenyl)propyl)-4-hydroxy-5-oxo-2,5-dihydro-1H-pyrrole-3-carboxamide] |
| 0.00544 | O=C(NCCCc1ccc(Cl)c(Cl)c1)C1=C(O)C(=O)N(CCOc2ccccc2)C1 [Example 61, N-(3-(3,4-dichlorophenyl)propyl)-4-hydroxy-5-oxo-1-(2-phenoxyethyl)-2,5-dihydro-1H-pyrrole-3-carboxamide] |
| 0.526 | CCOC(=O)[C@H](Cc1ccccc1)N1CC(C(=O)NCCCc2ccc(Cl)c(Cl)c2)=C(O)C1=O [Example 138, (S)-ethyl 2-(4-(3-(3,4-dichlorophenyl)propylcarbamoyl)-3-hydroxy-2-oxo-2,5-dihydro-1H-pyrrol-1-yl)-3-phenylpropanoate] |
| 0.546 | CCN1CC(C(=O)NCCCc2ccc(Cl)c(Cl)c2)=C(NCCCc2ccc(Cl)c(Cl)c2)C1=O [Example 179, N-(3-(3,4-dichlorophenyl)propyl)-4-(3-(3,4-dichlorophenyl)-propylamino)-1-ethyl-5-oxo-2,5-dihydro-1H-pyrrole-3-carboxamide] |
| 0.581 | CCN1CC(C(=O)NCCc2ccc(S(N)(=O)=O)cc2)=C(O)C1=O [Example 181, 1-ethyl-4-hydroxy-5-oxo-N-(4-sulfamoylphenethyl)-2,5-dihydro-1H-pyrrole-3-carboxamide] |
| 3.65 | CCN1CC(C(=O)NCCCN(C)c2ccccc2)=C(O)C1=O [Example 182, 1-ethyl-4-hydroxy-N-(3-(methyl(phenyl)amino)propyl)-5-oxo-2,5-dihydro-1H-pyrrole-3-carboxamide] |
| 0.466 | CC1C(C(=O)NCCCc2ccc(Cl)c(Cl)c2)=C(O)C(=O)N1CCOc1ccccc1 (centres unmarked) [Example 194, N-(3-(3,4-dichlorophenyl)propyl)-4-hydroxy-2-methyl-5-oxo-1-(2-phenoxyethyl)-2,5-dihydro-1H-pyrrole-3-carboxamide] |
| 5.46 | CN1CC(C(=O)NC(CCc2ccc(Cl)c(Cl)c2)C2CC2)=C(O)C1=O (centres unmarked) [Example 232, N-(1-cyclopropyl-3-(3,4-dichlorophenyl)propyl)-4-hydroxy-1-methyl-5-oxo-2,5-dihydro-1H-pyrrole-3-carboxamide] |
| 6.28 | CN1CC(C(=O)NC(CCc2ccc(Cl)c(Cl)c2)C2CC2)=C(O)C1=O (centres unmarked) [Example 233, N-(1-cyclopropyl-3-(3,4-dichlorophenyl)propyl)-4-hydroxy-1-methyl-5-oxo-2,5-dihydro-1H-pyrrole-3-carboxamide] |
| 0.493 | C=CC(CCc1ccc(Cl)c(Cl)c1)NC(=O)C1=C(O)C(=O)N(C)C1 (centres unmarked) [Example 236, N-(5-(3,4-dichlorophenyl)pent-1-en-3-yl)-4-hydroxy-1-methyl-5-oxo-2,5-dihydro-1H-pyrrole-3-carboxamide] |
| 8.38 | Cc1nc2cc(C#CCNC(=O)C3=C(O)C(=O)N(C)C3)ccc2s1 [Example 247, 4-hydroxy-1-methyl-N-(3-(2-methylbenzo[d]thiazol-5-yl)prop-2-ynyl)-5-oxo-2,5-dihydro-1H-pyrrole-3-carboxamide] |
| 4.66 | Cc1ccc(C#CCNC(=O)C2=C(O)C(=O)N(C)C2)cc1C(F)(F)F [Example 248, 4-hydroxy-1-methyl-N-(3-(4-methyl-3-(trifluoromethyl)phenyl)prop-2-ynyl)-5-oxo-2,5-dihydro-1H-pyrrole-3-carboxamide] |
| 3.44 | CC(CCc1ccc(Cl)c(Cl)c1)NC(=O)C1=C(O)C(=O)N(Cc2c[nH]nn2)C1 (centres unmarked) [Example 272, 1-((1H-1,2,3-triazol-4-yl)methyl)-N-(4-(3,4-dichlorophenyl)butan-2-yl)-4-hydroxy-5-oxo-2,5-dihydro-1H-pyrrole-3-carboxamide] |
| 2.68 | CC(CCc1ccc(Cl)c(Cl)c1)NC(=O)C1=C(O)C(=O)N(CCNC(=O)c2cc(F)cc(C(F)(F)F)c2)C1 (centres unmarked) [Example 273, N-(4-(3,4-dichlorophenyl)butan-2-yl)-1-(2-(3-fluoro-5-(trifluoromethyl)benzamido)ethyl)-4-hydroxy-5-oxo-2,5-dihydro-1H-pyrrole-3-carboxamide] |
| 7.3 | CC(=O)N(C)CCN1CC(C(=O)NC(C)CCc2ccc(Cl)c(Cl)c2)=C(O)C1=O (centres unmarked) [Example 280, N-(4-(3,4-dichlorophenyl)butan-2-yl)-4-hydroxy-1-(2-(N-methylacetamido)ethyl)-5-oxo-2,5-dihydro-1H-pyrrole-3-carboxamide] |
| 6.52 | CCN1CC(C(=O)NC[C@H]2CCc3ccccc3O2)=C(O)C1=O [Example 297, (R)-N-(chroman-2-ylmethyl)-1-ethyl-4-hydroxy-5-oxo-2,5-dihydro-1H-pyrrole-3-carboxamide] |
| 2.74 | O=C(NCCCOc1ccccc1)C1=C(O)C(=O)N(CC(F)(F)F)C1 [Example 299, 4-hydroxy-5-oxo-N-(3-phenoxypropyl)-1-(2,2,2-trifluoroethyl)-2,5-dihydro-1H-pyrrole-3-carboxamide] |
| 3.81 | C[C@@H](NC(=O)C1=C(O)C(=O)N(CC(F)(F)F)C1)c1ccc2ccccc2c1 [Example 300, (R)-4-hydroxy-N-(1-(naphthalen-2-yl)ethyl)-5-oxo-1-(2,2,2-trifluoroethyl)-2,5-dihydro-1H-pyrrole-3-carboxamide] |
| 0.575 | CC(CCc1ccc(Cl)c(Cl)c1)NC(=O)C1=C(O)C(=O)N(CCC(=O)O)C1 (centres unmarked) [Example 344, 3-(4-(4-(3,4-dichlorophenyl)butan-2-ylcarbamoyl)-3-hydroxy-2-oxo-2,5-dihydro-1H-pyrrol-1-yl) propanoic acid] |
| 0.5 | CC(CCc1ccc(Cl)c(Cl)c1)NC(=O)C1=C(O)C(=O)N([C@H]2CCc3ccc(C(F)(F)F)cc32)C1 (stereo partly drawn) [Example 347, N-(4-(3,4-dichlorophenyl)butan-2-yl)-4-hydroxy-5-oxo-1-((S)-6-(trifluoromethyl)-2,3-dihydro-1H-inden-1-yl)-2,5-dihydro-1H-pyrrole-3-carboxamide] |
